Experiments:
[1] = molecular target: T1, AXL (Homo sapiens, UniProt P30530); assay: TR-FRET kinase activity assay, AXL; format: biochemical; details: ATP at Km, 60 minutes
T1 sequence (P30530 26-894): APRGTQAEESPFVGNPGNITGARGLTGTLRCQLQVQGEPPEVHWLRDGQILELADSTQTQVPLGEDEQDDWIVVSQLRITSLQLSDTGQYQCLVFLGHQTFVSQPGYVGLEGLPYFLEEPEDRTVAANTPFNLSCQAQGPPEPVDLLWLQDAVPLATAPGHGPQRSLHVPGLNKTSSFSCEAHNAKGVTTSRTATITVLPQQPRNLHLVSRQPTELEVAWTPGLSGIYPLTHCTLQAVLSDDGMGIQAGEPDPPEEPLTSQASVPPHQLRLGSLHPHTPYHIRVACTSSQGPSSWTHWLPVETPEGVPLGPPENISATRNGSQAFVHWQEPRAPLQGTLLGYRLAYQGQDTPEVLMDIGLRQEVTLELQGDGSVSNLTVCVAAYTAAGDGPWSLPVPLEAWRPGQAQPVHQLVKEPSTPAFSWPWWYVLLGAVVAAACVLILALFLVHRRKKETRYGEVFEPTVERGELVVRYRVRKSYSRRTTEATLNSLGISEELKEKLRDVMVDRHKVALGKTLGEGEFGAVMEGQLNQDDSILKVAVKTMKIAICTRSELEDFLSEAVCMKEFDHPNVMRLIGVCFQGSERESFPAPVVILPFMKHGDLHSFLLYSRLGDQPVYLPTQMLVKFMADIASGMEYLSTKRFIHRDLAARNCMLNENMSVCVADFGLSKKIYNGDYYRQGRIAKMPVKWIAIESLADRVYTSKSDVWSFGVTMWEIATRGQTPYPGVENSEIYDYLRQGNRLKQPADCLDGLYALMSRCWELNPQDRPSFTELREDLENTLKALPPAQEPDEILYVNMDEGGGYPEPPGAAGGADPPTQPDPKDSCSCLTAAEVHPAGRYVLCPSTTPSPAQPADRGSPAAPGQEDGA
Procedure, shortened: (§1)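 Recombinant human kinases, fluorescent peptide substrate, ATP at Km; 1 h RT, pH 7.5. EDTA-quenched, Eu antibody added, TR-FRET read; IC50 determined.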

[2] = molecular target: T2, FLT3 (Homo sapiens, UniProt P36888); assay: TR-FRET kinase activity assay, FLT3; format: biochemical; details: ATP at Km, 60 minutes
T2 sequence (P36888 27-993): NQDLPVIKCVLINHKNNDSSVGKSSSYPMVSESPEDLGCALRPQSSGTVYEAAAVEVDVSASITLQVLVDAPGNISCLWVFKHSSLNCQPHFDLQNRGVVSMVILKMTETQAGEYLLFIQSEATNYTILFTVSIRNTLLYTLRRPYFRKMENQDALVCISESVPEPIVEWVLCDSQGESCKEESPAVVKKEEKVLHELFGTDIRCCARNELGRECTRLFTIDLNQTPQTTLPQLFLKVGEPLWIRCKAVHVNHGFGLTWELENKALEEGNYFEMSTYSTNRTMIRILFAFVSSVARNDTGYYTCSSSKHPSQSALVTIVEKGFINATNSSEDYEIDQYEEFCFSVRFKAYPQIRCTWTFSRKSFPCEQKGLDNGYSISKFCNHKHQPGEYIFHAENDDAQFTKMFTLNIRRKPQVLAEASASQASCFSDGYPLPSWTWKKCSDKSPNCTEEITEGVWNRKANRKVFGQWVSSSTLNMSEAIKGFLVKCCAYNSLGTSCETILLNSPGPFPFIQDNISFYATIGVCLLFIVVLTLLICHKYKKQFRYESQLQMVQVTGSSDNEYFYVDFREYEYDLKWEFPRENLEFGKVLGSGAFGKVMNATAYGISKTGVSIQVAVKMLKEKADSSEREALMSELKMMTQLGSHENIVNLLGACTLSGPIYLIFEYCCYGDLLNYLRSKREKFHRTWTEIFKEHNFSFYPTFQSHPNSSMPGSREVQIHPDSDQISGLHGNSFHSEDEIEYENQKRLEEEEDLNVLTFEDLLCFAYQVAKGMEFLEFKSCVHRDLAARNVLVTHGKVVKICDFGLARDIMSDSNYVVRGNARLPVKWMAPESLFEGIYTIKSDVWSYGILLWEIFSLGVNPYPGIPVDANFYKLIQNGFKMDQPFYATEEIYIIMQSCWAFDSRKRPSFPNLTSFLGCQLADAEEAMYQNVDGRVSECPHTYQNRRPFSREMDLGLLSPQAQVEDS
Procedure, shortened: as §1

Row | Structure (SMILES) | IC50 [1] [nM] | IC50 [2] [nM]
1 | COCC(C)Nc1ncc2c(-c3ccc(C(C)N4CCOCC4)cc3)cc(C3CCC(O)CC3)n2n1 (mixture of isomers) [Compound 180] | 100 to 1000 | 100 to 1000
2 | CC(Nc1ncc2c(-c3ccc(CN4CCN(C)CC4)cc3)cc([C@H]3CC[C@H](O)CC3)n2n1)C(F)F (mixture of isomers) [Compound 148] | ≤ 100 | 100 to 1000
3 | CCCCC[C@H](C)Nc1ncc2c(-c3ccc(S(=O)(=O)N4CCOCC4)cc3)cc([C@H]3CC[C@H](O)CC3)n2n1 [Compound 102, (1S,4r)-4-(2-((S)-heptan-2-ylamino)-5-(4-(morpholinosulfonyl)phenyl)pyrrolo[2,1-f][1,2,4]triazin-7-yl)cyclohexanol] | 100 to 1000 | 100 to 1000
4 | COC[C@H](C)Nc1ncc2c(-c3ccc(C(=O)N4CCN(C)CC4)cc3)cc([C@H]3CC[C@H](O)CC3)n2n1 [Compound 144] | ≤ 100 | 100 to 1000
5 | CC(CC#N)Nc1ncc2c(-c3ccc(CN4CCN(C)CC4)cc3)cc(C3CCC(O)CC3)n2n1 (stereo not shown) [Compound 145] | ≤ 100 | ≤ 100
6 | COC[C@H](C)Nc1ncc2c(-c3ccnc(C)c3)cc([C@H]3CC[C@H](O)CC3)n2n1 [Compound 146] | 100 to 1000 | 1000 to 10000
7 | CNC(=O)c1ccc(-c2cc([C@H]3CC[C@H](O)CC3)n3nc(N[C@@H](C)COC)ncc23)cn1 [Compound 147] | 100 to 1000 | 1000 to 10000
8 | COCC1(Nc2ncc3c(-c4ccc(CN5CCN(C)CC5)cc4)cc(C4CCC(O)CC4)n3n2)CC1 (stereo not shown) [Compound 149] | 100 to 1000 | 100 to 1000
9 | COC[C@H](C)Nc1ncc2c(-c3ccc(CN4CCN(C(C)=O)CC4)cc3)cc([C@H]3CC[C@H](O)CC3)n2n1 [Compound 150] | ≤ 100 | 100 to 1000
10 | COC[C@H](C)Nc1ncc2c(-c3cnn(C4CCOCC4)c3)cc([C@H]3CC[C@H](O)CC3)n2n1 [Compound 151] | 100 to 1000 | 100 to 1000
11 | COC[C@H](C)Nc1ncc2c(-c3cnn(C)c3)cc([C@H]3CC[C@H](O)CC3)n2n1 [Compound 152] | ≤ 100 | 100 to 1000
12 | COC[C@H](C)Nc1ncc2c(-c3cnn(CCN4CCOCC4)c3)cc([C@H]3CC[C@H](O)CC3)n2n1 [Compound 153] | 100 to 1000 | 1000 to 10000
13 | COC[C@H](C)Nc1ncc2c(-c3ccc(CN4CCN(c5nccc(C)n5)CC4)cc3)cc([C@H]3CC[C@H](O)CC3)n2n1 [Compound 154, (trans)-4-(2-(((S)-1-methoxypropan-2-yl)amino)-5-(4-((4-(4-methylpyrimidin-2-yl)piperazin-1-yl)methyl)phenyl)pyrrolo[2,1-f][1,2,4]triazin-7-yl)cyclohexanol] | ≤ 100 | 100 to 1000
14 | COC[C@H](C)Nc1ncc2c(-c3ccc(CN4CCN(C)CC4)cc3)cc([C@H]3CC[C@@H](O)CC3)n2n1 [Compound 155] | ≤ 100 | 100 to 1000
15 | COC[C@H](C)Nc1ncc2c(-c3ccc([C@@H](C)N4CCOCC4)cc3)cc([C@H]3CC[C@H](O)CC3)n2n1 [Compound 156] | ≤ 100 | 100 to 1000
16 | COC[C@H](C)Nc1ncc2c(-c3ccc([C@H](C)N4CCOCC4)cc3)cc([C@H]3CC[C@H](O)CC3)n2n1 [Compound 157] | ≤ 100 | ≤ 100
17 | COCC(C)Nc1ncc2c(-c3cccc(C(C)N4CCCC4)c3)cc(C3CCC(O)CC3)n2n1 (stereo not shown) [Compound 158] | ≤ 100 | 100 to 1000
18 | CCOC(=O)Cn1cc(-c2cc([C@H]3CC[C@H](O)CC3)n3nc(N[C@@H](C)COC)ncc23)cn1 [Compound 159] | ≤ 100 | 100 to 1000

Row | Structure (SMILES) | IC50 [1] [nM] | IC50 [2] [nM]
19 | COC[C@H](C)Nc1ncc2c(-c3cnn(CC(=O)O)c3)cc([C@H]3CC[C@H](O)CC3)n2n1 [Compound 160] | ≤ 100 | 1000 to 10000
20 | COCCC(C)Nc1ncc2c(-c3ccc(CN4CCCC4)cc3)cc(C3CCC(O)CC3)n2n1 (stereo not shown) [Compound 161] | 100 to 1000 | ≤ 100
21 | COC[C@H](C)Nc1ncc2c(-c3cnn(CC(=O)N4CCOCC4)c3)cc([C@H]3CC[C@H](O)CC3)n2n1 [Compound 162] | ≤ 100 | 100 to 1000
22 | COC[C@H](C)Nc1ncc2c(-c3ccc(CN4CCOCC4)cc3)cc([C@H]3CC[C@@H](O)CC3)n2n1 [Compound 163, (cis)-4-(2-(((S)-1-methoxypropan-2-yl)amino)-5-(4-(morpholinomethyl)phenyl)pyrrolo[2,1-f][1,2,4]triazin-7-yl)cyclohexanol] | ≤ 100 | 100 to 1000
23 | COCC(C)Nc1ncc2c(-c3ccc(C(C)N4CCCC4)cc3)cc(C3CCC(O)CC3)n2n1 (stereo not shown) [Compound 164] | ≤ 100 | ≤ 100
24 | COC[C@H](C)Nc1ncc2c(-c3ccc([C@H](C)N4CCCC4)cc3)cc([C@H]3CC[C@H](O)CC3)n2n1 [Compound 165] | ≤ 100 | ≤ 100
25 | COCC(C)Nc1ncc2c(-c3ccc(C(C)N4CCCC4)cc3)cc(C3CCC(O)CC3)n2n1 (stereo not shown) [Compound 166] | ≤ 100 | ≤ 100
26 | COC[C@H](C)Nc1ncc2c(-c3cnn(CC(C)C)c3)cc([C@H]3CC[C@H](O)CC3)n2n1 [Compound 167] | ≤ 100 | 100 to 1000
27 | COC[C@H](C)Nc1ncc2c(-c3cnccc3C)cc([C@H]3CC[C@H](O)CC3)n2n1 [Compound 168] | 1000 to 10000 | 1000 to 10000
28 | COC[C@H](C)Nc1ncc2c(-c3ccc(C#N)c(F)c3)cc([C@H]3CC[C@H](O)CC3)n2n1 [Compound 169] | ≤ 100 | 1000 to 10000
29 | COC[C@H](C)Nc1ncc2c(C3=CC4CCC(C3)N4)cc([C@H]3CC[C@H](O)CC3)n2n1 (stereo partly shown) [Compound 170] | ≤ 100 | 1000 to 10000
30 | COC[C@H](C)Nc1ncc2c(-c3ccc(C4(C(=O)N5CCOCC5)CC4)cc3)cc([C@H]3CC[C@H](O)CC3)n2n1 [Compound 171] | ≤ 100 | ≤ 100
31 | COCC(C)Nc1ncc2c(-c3ccc(C4(C(=O)N5CCS(=O)(=O)CC5)CC4)cc3)cc(C3CCC(O)CC3)n2n1 (stereo not shown) [Compound 172] | ≤ 100 | ≤ 100
32 | COC[C@H](C)Nc1ncc2c(-c3ccc(C4(C(=O)O)CC4)cc3)cc([C@H]3CC[C@H](O)CC3)n2n1 [Compound 173] | ≤ 100 | 100 to 1000
33 | COC[C@H](C)Nc1ncc2c(-c3cnn(CC(=O)NS(C)(=O)=O)c3)cc([C@H]3CC[C@H](O)CC3)n2n1 [Compound 174] | 100 to 1000 | 1000 to 10000
34 | COC[C@H](C)N(C)c1ncc2c(-c3ccnc(C)c3)cc([C@H]3CC[C@H](O)CC3)n2n1 [Compound 175, (trans)-4-(2-(((S)-1-methoxypropan-2-yl)(methyl)amino)-5-(2-methylpyridin-4-yl)pyrrolo[2,1-f][1,2,4]triazin-7-yl)cyclohexanol] | 1000 to 10000 | 1000 to 10000
35 | COC[C@H](C)N(C)c1ncc2c(-c3ccnc(C)c3)cc([C@H]3CC[C@H](OC)CC3)n2n1 [Compound 176, 7-((trans)-4-methoxycyclohexyl)-N-((S)-1-methoxypropan-2-yl)-N-methyl-5-(2-methylpyridin-4-yl)pyrrolo[2,1-f][1,2,4]triazin-2-amine] | 1000 to 10000 | 1000 to 10000
